The test relates to PBMC from normal healthy donors expressing the HLA A2 class 1 allele. Description: Establishment of human T cell lines by pulsing PBMC with peptide and IL-2. It is filed as cell-based. The conditions noted are these: donors with T cell line / donors tested; PBMC pulsed with peptide and IL-2. The source says:
Cytotoxic T-cells specific for PSA can be established from peripheral blood mononuclear cells (PBMC) obtained from a host immunized as discussed above. For example, PBMC can be separated by using Lymphocyte Separation Medium gradient (Organon Teknika, Durham, N.C., USA) as previously described [Boyum et al, Scand J. Clin Lab Invest 21:77-80 (1968)]. Washed PBMC are resuspended in a complete medium, for example, RPMI 1640 (GIBCO) supplemented with 10% pool human AB serum (Pel-Freeze Clinical System, Brown Dear, Wisc., USA), 2 mM glutamine, 100 U/ml penicillin and 100 μg/ml of streptomycin (GIBCO). PBMC at a concentration of about 2×10^5 cells in complete medium in a volume of, for example 100 μl are added into each well of a 96-well flat-bottom assay plate (Costar, Cambridge, Mass., USA). The antigen or peptides are added into the cultures in a final concentration of about 50 μg/ml and incubated at 37° C. in a humidified atmosphere containing 5% CO2 for 5 days. After removal of peptide containing media, the cultures are provided with fresh human IL-2 (10 U/ml) after 5 days and replenished with IL-2 containing medium every 3 days. Primary cultures are restimulated with the same peptide (50 μg/ml) on day 16. 5×10^5 irradiated (4,000 rad) autologous PBMC are added in a volume of about 50 μl complete medium as antigen-presenting cells (APC). […]

Take FLTPKKLQCV [PSA-1, ID No. 1]: the “T cell lines established from normal donors” value is listed as 5/6.

For the origin of these results see patent US20050196806A1, “Prostate specific antigen oligoepitope peptide” (The Government of the USA, as represented by the Secretary, …, priority 1996, published 2005).
